Reference: US20170158636A1, “FUNCTIONALISED AND SUBSTITUTED CARBAZOLES AS ANTI-CANCER AGENTS” (Novogen Ltd., priority 2014, published 2017)

How the values were obtained:
Format in all cases: cell-based
[1] = tested on: PC3 prostate cancer cells; assay: Anti-proliferative activity, cell-titre luminescent viability assay; conditions: 72 hours exposure
Method in brief: (§1)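 Seeded cell lines attached 24 h (37° C, 5% CO2), then received compound for 72 h before a 30 min luminescent viability read versus untreated control. Four-point series (0.03–30 μM) gave IC50 by linear regression of semi-log percent-of-control plots; six-point series (0.1–30 μM) gave vehicle-normalized EC50 from variable-slope sigmoidal fits.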

[2] = tested on: SK-N-SH neuroblastoma cells; assay: as above; conditions: Homo sapiens, 72 hours exposure
Method in brief: as §1

[3] = tested on: A549 lung (NSLC) cancer cells; assay: as above; conditions: Homo sapiens, 72 hours exposure
Method in brief: as §1

[4] = tested on: DU145 prostate cancer cells; assay: as above; conditions: Homo sapiens, DU-145, 72 hours exposure
Method in brief: as §1

[5] = tested on: MDA-MB-231 breast cancer cells; assay: as above; conditions: Homo sapiens, 72 hours exposure
Method in brief: as §1

[6] = tested on: CaCo2 colorectal cancer cells; assay: as above; conditions: Homo sapiens, Caco-2, 72 hours exposure
Method in brief: as §1

SK-Mel-28 melanoma cells = assay: as above; conditions: Homo sapiens, 72 hours exposure
Method in brief: as §1

[7] = tested on: actin cytoskeleton in SK-N-SH neuroblastoma cells; assay: Microfilament disruption assay (phalloidin staining, linear feature quantitation); conditions: 0-40 μM, 24 hours post treatment
Method: FIG. 1: Imaging and quantitation of actin filaments in SK-N-SH neuroblastoma cells treated with compound (A) 1007, (B) 1013 and (C) 1016. Cells were stained with 488-Atto-Phallodin and DAPI to visualize the actin filament bundles and the nucleus, respectively. Shown in the top panel is a representative gray scale immunofluorescent image from control (vehicle alone), 5 μM and 10 μM treated cells. […] The coloured lines indicate the detected actin filaments. Also shown is the quantitation of cell number, filament number/cell and filament number/cell area (μM^2). Statistical analysis was performed using a one way ANNOVA-multiple comparison where each drug treated group was compared to the control. ****p<0.0001, […].
The ability of compounds 1007, 1013 and 1016 to disrupt the actin cytoskeleton was assessed in vitro using the microfilament disruption assay (FIG. 1).
Briefly, SK-N-SH neuroblastoma cells were seeded at 1800 cells/well in a 384 Perkin Elmer High Content Imaging “Cell Carrier” plate and left to plate down 24 hours prior to treatment. Cells were then treated with 0-40 μM of the test compounds (1:2 serial dilution in a 10 point dose response). 24 hours post treatment, cells were fixed with 4% w/v paraformaldehyde (PBS), permeabilized with Triton-X-100 and stained with 488-Atto-Phallodin and DAPI to visualize the actin filament bundles and the nucleus respectively. Single plane images were obtained on the Perkin Elmer Opera confocal microscope using a 20× objective. Twelve fields of view per condition (representing approximately 300-800 cells) were imaged. Images were then exported and changes in the organization and numbers of actin filaments within the cell were quantitated using a linear feature detection algorithm developed by CSIRO (Vindin et al. 2014). This algorithm detects the “ridge lines” or “peaks” in local pixel intensity in the cell image. It is these “ridge lines” that correspond to actin filament bundles and allow us to quantitate the number of filaments per cell.

[8] = tested on: Tpm3.1-containing actin filaments in SK-N-SH neuroblastoma cells; assay: Disruption of Tpm3.1-containing actin filaments (γ9d staining); conditions: SK-N-SH cells, 0, 5 and 7.5 μM, 48 hours post treatment
Method: FIG. 2: Imaging and quantitation of Tpm3.1-containing actin filaments in SK-N-SH neuroblastoma cells treated with compound (A) 1007, (B) 1013 and (C) 1016. Cells were stained with γ9d (sheep polycolonal, 1:100) followed by 488-conjugated secondary (1:1000) and DAPI to visualize the Tpm3.1 containing filament bundles and the nucleus, respectively. Shown in the top panel is a representative gray scale immunofluorescent image from control (vehicle alone), 5 μM and 7.5 μM treated cells. […] The coloured lines indicate the detected Tpm3.1 containing actin filaments. Also shown is the quantitation of cell number, Tpm3.1 filament number/cell and Tpm3.1 filament number/cell area (μM^2). Statistical analysis was performed using a one way ANNOVA-multiple comparison where each drug treated group was compared to the control. ****p<0.0001.
Another assay was conducted to assess the ability of compounds 1007, 1013 and 1016 to specifically disrupt actin filaments containing Tpm3.1 (FIG. 2). Briefly, SK-N-SH neuroblastoma cells were seeded at 2×10^4 cells/mL in a 10 cm tissue culture plate and left to plate down 24 hours prior to treatment. Cells were then treated with 0, 5 and 7.5 μM of the test compounds. 48 hours post treatment, cells were fixed with 4% w/v paraformaldehyde (PBS), permeabilized with Triton-X-100 and stained with γ9d (sheep polycolonal, 1:100) followed by 488-conjugated secondary (1:1000) and DAPI to visualize the Tpm3.1 containing filament bundles and the nucleus, respectively. Single plane images were obtained on the Zeiss epifluorescent Axioscope microscope using a 20× objective. Six fields of view per condition were imaged. Images were then exported and the linear features (actin filaments containing Tpm3.1) were then quantitated using the linear feature detection algorithm described above.

CCN(CC)CCCn1c2ccccc2c2cc(C(=O)N3CCN(CCc4ccc(F)cc4)CC3)ccc21 [Compound 1007, (9-(3-(diethylamino)propyl)-9H-carbazol-3-yl)(4-(4-fluorophenethyl)piperazin-1-yl)methanone]
IC50 [1]: 3200 nM
IC50 [2]: 1600 nM
IC50 [3]: 1900 nM
IC50 [4]: 3000 nM
IC50 [5]: 2400 nM
IC50 [6]: 2800 nM
IC50 (SK-Mel-28 melanoma cells): 1200 nM
disruption of the actin cytoskeleton [7]: disrupt the actin cytoskeleton in a dose-dependent manner
disruption of Tpm3.1-containing actin filaments [8]: disrupt Tpm3.1-containing actin filaments in a dose-dependent manner
